Test results published in article PMC6197089, “Disubstituted piperazine analogues of trifluoromethylphenylpiperazine and methylenedioxybenzylpiperazine: analytical differentiation and serotonin receptor binding studies” (Forensic sciences research, 2018).
Where two headings read alike, the source gives them in different places.

What was measured:
[1] = tested on: cardiomyoblast h9c2 cells; conditions: cited from earlier work
[2] = target: T1, 5-HT1A receptors (Homo sapiens, UniProt P08908); assay: PDSP radioligand competition binding, 5-HT1A; conditions: secondary binding assay, average of n = 3
T1 construct: University of North Carolina Psychoactive Drug Screening Project (PDSP), contract testing
T1 sequence (P08908 1-422): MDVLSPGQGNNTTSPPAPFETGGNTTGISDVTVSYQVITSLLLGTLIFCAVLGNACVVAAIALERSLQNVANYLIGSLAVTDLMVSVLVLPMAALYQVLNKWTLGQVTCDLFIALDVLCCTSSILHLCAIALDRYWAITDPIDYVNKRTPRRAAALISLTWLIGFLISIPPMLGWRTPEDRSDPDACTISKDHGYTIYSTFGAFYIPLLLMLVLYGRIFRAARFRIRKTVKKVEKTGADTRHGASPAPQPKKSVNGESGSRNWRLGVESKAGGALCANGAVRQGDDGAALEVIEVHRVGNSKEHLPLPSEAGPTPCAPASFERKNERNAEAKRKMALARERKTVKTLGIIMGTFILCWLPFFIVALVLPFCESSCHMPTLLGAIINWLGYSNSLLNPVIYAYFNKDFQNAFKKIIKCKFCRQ
Method: (§1) All six of the hybrid TFMPP–MDBP regioisomers reported in this manuscript were tested for their serotonin receptor and reuptake pump binding profiles by the University of North Carolina's Psychoactive Drug Screening Project (PDSP). Initially, each isomer was tested in a primary assay at a concentration of 10 umol/L for its ability to displace a standard ligand at each serotonin receptor and transporter subtype. […] The Ki (nmol/L) values were obtained from non-linear regression of radioligand competition binding isotherms in this assay and calculated from best-fit inhibitory concentration IC50 values using the Cheng–Prusoff equation. The reported values are the average of three (n = 3) determinations. Further experimental details regarding these receptor assays are presented in the PDSP Protocol Manual available at the PDSP website.

[3] = target: T2, 5-HT2B receptors (Homo sapiens, UniProt P41595); assay: PDSP radioligand competition binding, 5-HT2B; conditions: secondary binding assay, average of n = 3
T2 construct: University of North Carolina Psychoactive Drug Screening Project (PDSP), contract testing
T2 sequence (P41595 whole entry): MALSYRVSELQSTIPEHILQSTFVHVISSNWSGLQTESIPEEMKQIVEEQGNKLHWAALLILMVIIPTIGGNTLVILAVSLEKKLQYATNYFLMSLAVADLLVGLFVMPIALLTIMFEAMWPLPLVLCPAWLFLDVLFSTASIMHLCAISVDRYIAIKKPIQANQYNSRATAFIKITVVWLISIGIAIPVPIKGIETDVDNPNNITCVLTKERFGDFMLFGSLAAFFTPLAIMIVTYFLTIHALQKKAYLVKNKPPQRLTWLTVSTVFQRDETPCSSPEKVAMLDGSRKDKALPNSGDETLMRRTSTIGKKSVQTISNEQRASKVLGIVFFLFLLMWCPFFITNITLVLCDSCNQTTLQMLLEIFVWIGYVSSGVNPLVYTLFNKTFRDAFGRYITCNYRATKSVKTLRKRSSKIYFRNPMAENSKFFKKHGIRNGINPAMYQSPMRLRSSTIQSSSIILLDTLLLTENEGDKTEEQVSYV
Method: as §1

[4] = target: T3, 5-HT2A receptors (Homo sapiens, UniProt P28223); assay: PDSP radioligand competition binding, 5-HT2A; conditions: for Ki: secondary binding assay, average of n = 3
T3 construct: University of North Carolina Psychoactive Drug Screening Project (PDSP), contract testing
T3 sequence (P28223 whole entry): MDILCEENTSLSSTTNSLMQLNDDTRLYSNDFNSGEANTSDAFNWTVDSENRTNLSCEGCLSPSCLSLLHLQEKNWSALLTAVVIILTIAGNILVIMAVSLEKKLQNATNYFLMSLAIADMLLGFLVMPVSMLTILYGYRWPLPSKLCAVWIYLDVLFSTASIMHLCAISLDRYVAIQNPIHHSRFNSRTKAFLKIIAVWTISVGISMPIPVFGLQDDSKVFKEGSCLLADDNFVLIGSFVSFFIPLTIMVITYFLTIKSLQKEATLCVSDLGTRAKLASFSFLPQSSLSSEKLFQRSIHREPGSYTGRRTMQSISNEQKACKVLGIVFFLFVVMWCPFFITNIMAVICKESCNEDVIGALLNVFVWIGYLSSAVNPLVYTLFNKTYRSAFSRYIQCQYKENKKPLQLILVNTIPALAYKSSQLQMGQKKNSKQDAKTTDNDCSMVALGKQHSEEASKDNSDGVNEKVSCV
Method: as §1

[5] = target: T4, 5-HT2C receptors (Homo sapiens, UniProt P28335); assay: PDSP radioligand competition binding, 5-HT2C; conditions: for Ki: secondary binding assay, average of n = 3
T4 construct: University of North Carolina Psychoactive Drug Screening Project (PDSP), contract testing
T4 sequence (P28335 33-458): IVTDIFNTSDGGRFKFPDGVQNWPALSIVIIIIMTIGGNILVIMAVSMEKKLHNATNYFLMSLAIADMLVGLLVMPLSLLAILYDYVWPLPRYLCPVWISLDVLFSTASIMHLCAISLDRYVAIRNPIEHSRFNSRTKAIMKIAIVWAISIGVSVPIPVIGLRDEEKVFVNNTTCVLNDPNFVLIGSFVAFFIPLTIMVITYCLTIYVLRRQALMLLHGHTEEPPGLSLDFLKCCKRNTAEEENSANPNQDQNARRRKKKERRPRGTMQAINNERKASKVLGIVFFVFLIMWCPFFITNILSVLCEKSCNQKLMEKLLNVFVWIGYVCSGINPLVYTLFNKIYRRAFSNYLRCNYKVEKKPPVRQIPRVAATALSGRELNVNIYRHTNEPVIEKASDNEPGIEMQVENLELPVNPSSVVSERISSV
Method: as §1

[6] = target: T5, SERT (serotonin reuptake pump) (Homo sapiens, UniProt P31645); assay: PDSP radioligand competition binding, SERT; conditions: for Ki: secondary binding assay, average of n = 3
T5 construct: University of North Carolina Psychoactive Drug Screening Project (PDSP), contract testing
T5 sequence (P31645 whole entry, species assumed): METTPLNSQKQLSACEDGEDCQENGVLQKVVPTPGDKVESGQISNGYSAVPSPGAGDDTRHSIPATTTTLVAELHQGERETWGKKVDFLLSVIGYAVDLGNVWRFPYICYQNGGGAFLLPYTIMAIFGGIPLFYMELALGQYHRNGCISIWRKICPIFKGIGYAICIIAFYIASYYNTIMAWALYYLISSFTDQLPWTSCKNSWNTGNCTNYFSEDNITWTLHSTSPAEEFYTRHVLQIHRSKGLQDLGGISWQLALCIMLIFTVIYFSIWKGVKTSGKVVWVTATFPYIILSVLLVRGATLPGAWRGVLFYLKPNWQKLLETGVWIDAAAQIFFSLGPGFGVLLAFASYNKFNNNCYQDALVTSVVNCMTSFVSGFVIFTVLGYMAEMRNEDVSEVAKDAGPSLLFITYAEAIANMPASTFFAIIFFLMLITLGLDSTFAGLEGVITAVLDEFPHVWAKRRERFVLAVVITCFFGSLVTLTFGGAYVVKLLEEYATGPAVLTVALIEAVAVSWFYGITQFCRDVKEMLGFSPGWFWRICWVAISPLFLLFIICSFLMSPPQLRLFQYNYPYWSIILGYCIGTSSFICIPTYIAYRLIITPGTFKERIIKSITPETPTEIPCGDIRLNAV
Method: as §1

[7] = target: T6, 5-HT7 receptors (Homo sapiens, UniProt P34969); assay: PDSP radioligand competition binding, 5-HT7; conditions: for Ki: secondary binding assay, average of n = 3
T6 construct: University of North Carolina Psychoactive Drug Screening Project (PDSP), contract testing
T6 sequence (P34969 whole entry): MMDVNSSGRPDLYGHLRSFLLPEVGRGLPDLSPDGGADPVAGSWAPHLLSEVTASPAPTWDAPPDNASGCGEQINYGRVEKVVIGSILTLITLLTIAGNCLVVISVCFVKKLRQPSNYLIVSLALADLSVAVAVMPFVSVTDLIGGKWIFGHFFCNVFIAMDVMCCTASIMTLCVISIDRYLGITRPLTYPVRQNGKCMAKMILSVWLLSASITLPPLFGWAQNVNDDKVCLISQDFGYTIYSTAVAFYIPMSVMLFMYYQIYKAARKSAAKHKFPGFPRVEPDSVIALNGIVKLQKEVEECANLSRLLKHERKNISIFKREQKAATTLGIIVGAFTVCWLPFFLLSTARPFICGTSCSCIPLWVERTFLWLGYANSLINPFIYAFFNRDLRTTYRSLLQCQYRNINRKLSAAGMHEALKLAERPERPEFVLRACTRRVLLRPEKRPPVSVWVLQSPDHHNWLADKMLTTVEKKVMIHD
Method: as §1

[8] = tested on: 5-HT2A receptor; conditions: literature, no reference given; cited from earlier work
[9] = tested on: SERT; conditions: no reference given, cited from earlier work
[10] = target: T3, 5-HT2A receptors; conditions: read-out: Ki, 5-HT2A; literature value, no reference given; cited from earlier work
[11] = tested on: dopamine and norepinephrine reuptake pumps; conditions: literature, no reference given; cited from earlier work
[12] = tested on: 5-HT1A, 5-HT1B, 5-HT1D and 5-HT2C receptors; conditions: literature, no reference given; cited from earlier work
[13] = target: 5-HT1B receptors; conditions: literature value, no reference given; cited from earlier work
[14] = tested on: other serotonin receptor subtypes; conditions: literature, no reference given; cited from earlier work
[15] = target: 5-HT1D receptors; conditions: literature value, no reference given; cited from earlier work
[16] = target: T1, 5-HT1A receptors; conditions: read-out: Ki, 5-HT1A; literature value, no reference given; cited from earlier work

Compound	Ki [2]	Ki [3]	Ki [4]	binding to 5-HT2C receptors, in words [5]	Ki [5]	Ki [6]	binding by 5-HT7 receptors, in words [7]	Ki [7]	also measured
c1cc2c(cc1CN1CCNCC1)OCO2 [3,4-MDBP, 1-(3,4-methylenedioxybenzyl) piperazine]	–	–	–	–	–	–	–	–	intracellular calcium levels [1]: significant increase; mitochondrial membrane potential [1]: decrease
FC(F)(F)c1ccccc1N1CCN(Cc2cccc3c2OCO3)CC1 [Compound 1, 2-TFMPP-2,3-MDBP]	> 1000 nM	74.5 nM	> 1000 nM	modest binding	868 nM	> 1000 nM	bound by 5-HT7 receptors	165 nM	binding by 5-HT7 receptors, in words ([7]; listed as 2-TFMPP-2,3-MDBP): highest affinity
FC(F)(F)c1cccc(N2CCN(Cc3cccc4c3OCO4)CC2)c1 [Compound 2, 3-TFMPP-2,3-MDBP]	864 nM	203 nM	372 nM	modest binding	753 nM	> 1000 nM	bound by 5-HT7 receptors	747 nM	affinity at 5-HT2A receptors compared to 3-TFMPP, in words [4]: retained activity comparable to the parent designer drug
FC(F)(F)c1ccc(N2CCN(Cc3cccc4c3OCO4)CC2)cc1 [Compound 3, 4-TFMPP-2,3-MD]	> 1000 nM	870 nM	> 1000 nM	–	> 1000 nM	> 1000 nM	–	> 1000 nM	–
FC(F)(F)c1cccc(N2CCNCC2)c1 [Compound 3-TFMPP, 1-(3-trifluoromethylphenyl) piperazine]	–	–	–	–	–	–	–	–	functional activity at the 5-HT2A receptor [8]: weak partial agonist or antagonist; EC50 ([9]; literature value, read-out: effective concentration (EC50) at SERT): 121 nM; serotonin release, in words ([9]; literature): promotes serotonin release; Ki [10]: 269 nM; intracellular calcium levels [1]: significant increase; mitochondrial membrane potential [1]: decrease; effects on dopamine and norepinephrine reuptake pumps [11]: no effects; functional activity at all sites except 5-HT2A [12]: full agonist; Ki [13]: 132 nM; affinity for other serotonin receptor subtypes, in words [14]: does not show significant affinity; Ki [15]: 282 nM; Ki [16]: 288 nM
FC(F)(F)c1ccccc1N1CCN(Cc2ccc3c(c2)OCO3)CC1 [Compound 4, 2-TFMPP-3,4-MDBP]	> 1000 nM	81 nM	> 1000 nM	modest binding	924 nM	> 1000 nM	bound by 5-HT7 receptors	462 nM	–
FC(F)(F)c1cccc(N2CCN(Cc3ccc4c(c3)OCO4)CC2)c1 [Compound 5, 3-TFMPP-3,4-MDBP]	188 nM	116 nM	> 1000 nM	modest binding	430 nM	> 1000 nM	bound by 5-HT7 receptors	516 nM	–
FC(F)(F)c1ccc(N2CCN(Cc3ccc4c(c3)OCO4)CC2)cc1 [Compound 6, 4-TFMPP-3,4-MDBP]	> 1000 nM	247 nM	> 1000 nM	–	> 1000 nM	722 nM	–	> 1000 nM	affinity for SERT pumps, in words [6]: significant affinity; potency at SERT relative to monosubstituted 3-TFMPP [6]: about six-times less potent
